{"source": "patent US20100184852A1", "about": "“ORGANIC COMPOUNDS FOR TREATMENT OF DISORDERS CONNECTED TO IMPAIRED NEUROTRANSMISSION” (priority 2006, published 2010)", "key": {"mice [1]": {"tested_on": "mice", "assay": "Elevated plus maze test", "type": "in vivo, mouse", "conditions": "for OPEN ARM Number of entries, Mean ± sem / OPEN ARM Time spent (s), Mean ± sem: 5 h and 1 h before test; for OPEN ARM Number of entries, % change / OPEN ARM Time spent, % change: versus vehicle", "description": "The method, which detects anxiolytic activity, follows that described by Handley et al, 1984 (Naunyn-Schm Arch Pharm 387: 1-5. Rodents avoid open spaces (the open arms of an elevated plus-maze). Anxiolytics increase exploratory activity in the […].\nThe maze consists of 4 arms of equal length and width (14×5 cm) arranged in the form of a plus sign (+). Two opposite arms are enclosed by 12 cm high walls (closed arms). The 2 other arms have no walls (open arms). The maze is raised 56 cm above the floor. A mouse is placed in the centre of the plus-maze and left to explore for 5 minutes. The number of entries into the open and closed arms and the time spent in the open arms is recorded. 10 mice were studied per group. The test was performed blind.\n3-n-Butylphthalide was tested at doses of 10, 30, and 80 mg/kg body weight."}, "mice [2]": {"tested_on": "mice", "assay": "Porsolt's swim test (behavioural despair test)", "type": "in vivo, mouse", "conditions": "for Duration of immobility [seconds] ± Standard Error of Mean: last 4 of 6 minutes", "procedure": "The “Behavioural Despair Test” or “Porsolt's Forced Swim Test” is a validated animal model for depression (see T, Nagatsu 2004 Neuro Toxicology, 25:11-20, and Porsolt et al. 1977, Arch. Int. Pharmacodyn., 229: 327-336). It responds to enhancement of the trans-mission of several neurotransmitters including serotonine, dopamine and noradrenaline.\nThe test, which detects antidepressant activity, was carried out as described by Porsolt et al supra. Mice which are forced to swim in a situation from which they cannot escape rapidly become immobile. Antidepressants decrease the duration of immobility.\nMice were individually placed in a cylinder (Height=24 cm, Diameter=13 cm) containing 10 cm water (22° C.) from which they could not escape. The mice were placed in the water for 6 minutes and the duration of immobility during the last 4 minutes was measured.\n10 mice were studied per each of the four groups. The test was performed blind, i.e. the person carrying out the experiment was different from the person injecting the mice and didn't thus know to which of the four groups each mouse belonged.\n3-n-butylphthalide (98.5% purity) was evaluated at 3 doses each: at 10, 30 and 80 mg/kg body weight, administered intraperitoneally 30 minutes before the test, and compared with a control group. The thus administered 3-n-butylphthalide was dissolved in a saline solution containing 3 weight-% DMSO and 3 weight-% Tween® 80 (so called “vehicle”), To the control group the vehicle consisting of the saline solution containing 3 weight-% DMSO and 3 weight-% Tween® 80 was administered intraperitoneally."}, "[3]": {"molecular_target": "T1, Human recombinant norepinephrine transporter (Homo sapiens, UniProt P23975)", "T1 construct": "expressed in transfected cells; host or cells: dog kidney MDCK cells", "T1 sequence (P23975 whole entry)": "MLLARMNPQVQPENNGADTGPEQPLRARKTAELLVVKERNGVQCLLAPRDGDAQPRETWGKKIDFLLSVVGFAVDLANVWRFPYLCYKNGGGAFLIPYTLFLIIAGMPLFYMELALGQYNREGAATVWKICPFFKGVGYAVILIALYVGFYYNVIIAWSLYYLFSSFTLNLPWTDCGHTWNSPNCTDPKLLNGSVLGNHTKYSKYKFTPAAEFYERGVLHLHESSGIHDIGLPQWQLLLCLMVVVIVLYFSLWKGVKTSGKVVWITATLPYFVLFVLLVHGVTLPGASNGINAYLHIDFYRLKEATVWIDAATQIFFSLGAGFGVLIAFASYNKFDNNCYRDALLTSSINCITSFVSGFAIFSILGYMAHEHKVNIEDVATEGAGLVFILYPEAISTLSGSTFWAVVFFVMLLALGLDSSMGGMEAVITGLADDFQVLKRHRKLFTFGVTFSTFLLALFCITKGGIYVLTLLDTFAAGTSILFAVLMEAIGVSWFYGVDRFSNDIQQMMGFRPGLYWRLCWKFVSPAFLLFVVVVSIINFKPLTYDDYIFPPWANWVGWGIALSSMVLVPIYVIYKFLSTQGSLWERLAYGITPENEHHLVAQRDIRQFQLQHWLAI", "assay": "Norepinephrine uptake inhibition in MDCK cells", "type": "cell-based", "conditions": "25 nM [3H]Norepinephrine, 10 minutes", "procedure": "Human recombinant norepinephrine transporter stably expressed dog kidney MDCK cells are plated one day before the assay. […] Cells in the well were then rinsed twice, solubilized with 1% SDS lysis buffer and the lysate was counted to determine [^3H]Norepinephrine uptake. Specific signal was determined in the presence of 10 μM desipramine. Reduction of [^3H]Norepinephrine uptake by 50 percent or more (≧50%) relative to vehicle controls indicates significant inhibitory activity. Compounds were screened at 10, 1, 0.1, 0.01 and 0.001 μM."}, "[4]": {"molecular_target": "T2, human dopamine transporter (hDAT) (Homo sapiens, UniProt Q01959)", "T2 construct": "expressed in transfected cells; host or cells: CHO-Ki (CHO-K1)", "T2 sequence (Q01959 whole entry)": "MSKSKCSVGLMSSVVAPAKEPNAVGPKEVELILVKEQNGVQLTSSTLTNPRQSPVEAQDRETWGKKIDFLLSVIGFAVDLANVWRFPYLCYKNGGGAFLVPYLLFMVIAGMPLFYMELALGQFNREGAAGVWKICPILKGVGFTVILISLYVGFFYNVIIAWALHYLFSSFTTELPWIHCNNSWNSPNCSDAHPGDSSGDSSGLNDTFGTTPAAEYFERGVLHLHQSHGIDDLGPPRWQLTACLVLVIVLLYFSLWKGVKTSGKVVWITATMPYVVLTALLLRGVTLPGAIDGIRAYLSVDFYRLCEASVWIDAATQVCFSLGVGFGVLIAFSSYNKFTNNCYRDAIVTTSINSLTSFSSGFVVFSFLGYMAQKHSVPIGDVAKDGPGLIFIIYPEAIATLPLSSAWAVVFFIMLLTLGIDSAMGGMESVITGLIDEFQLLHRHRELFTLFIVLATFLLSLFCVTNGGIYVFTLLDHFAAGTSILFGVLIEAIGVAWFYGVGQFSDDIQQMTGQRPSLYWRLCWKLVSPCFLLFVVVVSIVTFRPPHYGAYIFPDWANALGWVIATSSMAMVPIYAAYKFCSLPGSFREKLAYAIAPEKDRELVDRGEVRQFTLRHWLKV", "assay": "Dopamine uptake inhibition in CHO-Ki/hDAT cells", "type": "cell-based", "conditions": "50 nM [3H]Dopamine, 10 minutes", "procedure": "CHO-Ki/hDAT cells expressing the human dopamine transporter (hDAT) were plated before the assay. Cells (2×10^5/ml) were incubated with the compound of the formula I (3-n-butylphthalide) and/or vehicle in modified Tris-HEPES buffer pH 7.1 at 25° C. for 20 minutes before addition of 50 nM [^3H]Dopamine for 10 minutes. Specific signal was determined in the presence of 10 μM nomifensine. Cells were then solubilized with 1% […] lysis buffer. Reduction of [^3H]Dopamine uptake by 50 percent or more 50%) relative to vehicle controls indicates significant inhibitory activity. Compounds were screened at 10, 1, 0.1, 0.01 and 0.001 μM."}, "mice [5]": {"tested_on": "mice", "assay": "Primary observation (Irwin) test in the mouse", "type": "in vivo", "conditions": "for overall effect in the Irwin test: all doses tested", "procedure": "The method, which detects the first toxic dose, the active dose-range and the principal effects of a test substance on behavior and physiological function, follows that described by Irwin 1968 Psychopharmaco, 13:222-257,\n3 treated groups were compared with the same control at any one time. All animals within a treatment group were observed simultaneously.\nBehavioral modifications, physiological and neurotoxicity symptoms, pupil diameter and rectal temperature were recorded according to a standardized observation grid derived from that of Irwin, supra. The grid contains the following items: lethality*, convulsions*, tremor*, Straub*, sedation, excitation, abnormal gait* (rolling, tip-toe), jumps*, motor incoordination*, writhes*, piloerection*, stereotypies* (sniffing, chewing, head movements), head twitches*, scratching*, respiration*, aggressiveness*, fear, reactivity to touch, muscle tone, loss of righting reflex, ptosis, exopthalmos, loss of grasping, akinesia, catalepsy, loss of traction, loss of corneal reflex, analgesia, defecation, salivation, lacrimation, pupil diameter (Unit=1/45 mm) and rectal temperature.\nObservations were performed 15, 30, 60, 120 and 180 minutes after administration of the test substance and also 24 hours later. The symptoms marked (*) were observed continuously from 0 to 15 minutes after administration. 5 mice were studied per group.\n3-Butylphthalide (98.5% purity) was solubilized in 3% DMSO, 3% Tween 80 in saline (0.9% w/v NaCl) and injected into mice intraperitoneally."}, "[6]": {"conditions": "100 mg/kg, 15 to 60 minutes after administration"}}}
{"smiles": "CCCC[C@@H]1OC(=O)c2ccccc21", "note": "(stereo in doubt) [3-n-butylphthalide, 3-n-Butylphthalide]", "values": [{"measurement": "OPEN ARM Number of entries, Mean ± sem", "setting": "mice [1]; 10 mg/kg p.o. −24 h", "result": "3.5 ± 0.7"}, {"measurement": "OPEN ARM Time spent (s), Mean ± sem", "setting": "mice [1]; 10 mg/kg p.o. −24 h", "result": "24.3 ± 4.6", "unit": "s"}, {"measurement": "OPEN ARM Number of entries, % change", "setting": "mice [1]; 10 mg/kg p.o.", "result": "+46%"}, {"measurement": "OPEN ARM Time spent, % change", "setting": "mice [1]; 10 mg/kg p.o.", "result": "+34%"}, {"measurement": "OPEN ARM Number of entries, Mean ± sem", "setting": "mice [1]; 30 mg/kg p.o. −24 h", "result": "3.1 ± 0.5"}, {"measurement": "OPEN ARM Time spent (s), Mean ± sem", "setting": "mice [1]; 30 mg/kg p.o. −24 h", "result": "23.0 ± 3.8", "unit": "s"}, {"measurement": "OPEN ARM Number of entries, % change", "setting": "mice [1]; 30 mg/kg p.o.", "result": "+29%"}, {"measurement": "OPEN ARM Time spent, % change", "setting": "mice [1]; 30 mg/kg p.o.", "result": "+26%"}, {"measurement": "OPEN ARM Number of entries, Mean ± sem", "setting": "mice [1]; 80 mg/kg p.o. −24 h", "result": "3.0 ± 0.8"}, {"measurement": "OPEN ARM Time spent (s), Mean ± sem", "setting": "mice [1]; 80 mg/kg p.o. −24 h", "result": "26.4 ± 5.3", "unit": "s"}, {"measurement": "OPEN ARM Number of entries, % change", "setting": "mice [1]; 80 mg/kg p.o.", "result": "+25%"}, {"measurement": "OPEN ARM Time spent, % change", "setting": "mice [1]; 80 mg/kg p.o.", "result": "+45%"}, {"measurement": "anxiolytic activity", "setting": "mice [1]; 10, 30 and 80 mg/kg", "result": "moderate anxiolytic activity"}, {"measurement": "entries into the closed arm", "setting": "mice [1]; 10, 30 and 80 mg/kg", "result": "no effect"}, {"measurement": "number of entries and time spent in the open arm (overall)", "setting": "mice [1]; 10, 30 and 80 mg/kg", "result": "trend to moderately increase"}, {"measurement": "Duration of immobility [seconds] ± Standard Error of Mean", "setting": "mice [2]; 10 mg/kg body weight", "result": "132.4 ± 9.3", "unit": "s"}, {"measurement": "Duration of immobility [seconds] ± Standard Error of Mean", "setting": "mice [2]; 30 mg/kg body weight", "result": "128.0 ± 15.3", "unit": "s"}, {"measurement": "Duration of immobility [seconds] ± Standard Error of Mean", "setting": "mice [2]; 80 mg/kg body weight", "result": "129.0 ± 15.4", "unit": "s"}, {"measurement": "reduction of the immobility time", "setting": "mice [2]; between 10 and 80 mg/kg, tendency", "result": "approximately 18%"}, {"measurement": "IC50", "setting": "[3]", "result": 23.7, "unit": "µM"}, {"measurement": "IC50", "setting": "[4]", "result": 22, "unit": "µM"}, {"measurement": "muscle tone", "setting": "mice [5]; 100 mg/kg, 15 to 60 minutes", "result": "reduced muscle tone"}, {"measurement": "sedation", "setting": "mice [5]; [6]", "result": "slight sedative effects"}, {"measurement": "muscle tone", "setting": "mice [5]; 200 mg/kg", "result": "reduced muscle tone"}, {"measurement": "fear", "setting": "mice [5]; 200 mg/kg, after 60 minutes", "result": "reduced fear"}, {"measurement": "sedation", "setting": "mice [5]; 200 mg/kg, up to 120 minutes", "result": "moderate sedative effects"}, {"measurement": "sedation", "setting": "mice [5]; 300 mg/kg, 15 minutes and 30 minutes", "result": "marked sedation"}, {"measurement": "sedation", "setting": "mice [5]; 300 mg/kg, 60 minutes and 120 minutes", "result": "moderate sedation"}, {"measurement": "fear", "setting": "mice [5]; 300 mg/kg, 120 minutes", "result": "reduced"}, {"measurement": "muscle tone", "setting": "mice [5]; 300 mg/kg, 120 minutes", "result": "reduced"}, {"measurement": "sedation", "setting": "mice [5]; 300 mg/kg, 180 minutes", "result": "slight sedation"}, {"measurement": "overall effect in the Irwin test", "setting": "mice [5]", "result": "dose dependent sedative and muscle relaxant effect"}, {"measurement": "overall effect in the Irwin test", "setting": "mice [5]; listed as 3-butylphthalide", "result": "dose dependent sedative, fear reducing and muscle relaxant effect"}]}
{"smiles": "CCC/C=C1\\OC(=O)C2=C1CCC=C2", "note": "[Ligustilide]", "values": [{"measurement": "Duration of immobility [seconds] ± Standard Error of Mean", "setting": "mice [2]; 10 mg/kg body weight", "result": "128.9 ± 15.1", "unit": "s"}, {"measurement": "reduction of the immobility time", "setting": "mice [2]; 10 mg/kg, tendency", "result": "approx. 18%"}, {"measurement": "Duration of immobility [seconds] ± Standard Error of Mean", "setting": "mice [2]; 30 mg/kg body weight", "result": "164.2 ± 15.5", "unit": "s"}, {"measurement": "reduction of the immobility time", "setting": "mice [2]; higher doses (30 and 80 mg/kg)", "result": "not at the higher doses"}, {"measurement": "sedation", "setting": "mice [5]; 30 mg/kg, 30 minutes", "result": "slight sedation"}, {"measurement": "muscle tone", "setting": "mice [5]; 100 mg/kg, 15 to 60 minutes", "result": "decreased muscle tone"}, {"measurement": "sedation", "setting": "mice [5]; [6]", "result": "slight sedation"}, {"measurement": "muscle tone", "setting": "mice [5]; 200 mg/kg", "result": "decreased muscle tone"}, {"measurement": "sedation", "setting": "mice [5]; 200 mg/kg, 180 minutes", "result": "slight"}, {"measurement": "sedation", "setting": "mice [5]; 200 mg/kg, up to 120 minutes", "result": "slight-to-moderate"}, {"measurement": "sedation", "setting": "mice [5]; 300 mg/kg, 15 to 60 minutes", "result": "moderate"}, {"measurement": "muscle tone", "setting": "mice [5]; 300 mg/kg, 15 to 180 minutes", "result": "decreased muscle tone"}, {"measurement": "sedation", "setting": "mice [5]; 300 mg/kg, 120 to 180 minutes", "result": "slight"}, {"measurement": "overall effect in the Irwin test", "setting": "mice [5]", "result": "dose dependent sedative and muscle relaxant effect"}]}
